According to patent publication US8597875B2, “Method for diagnosing liver toxicity with sex specific biomarkers” (BASF SE, priority 2008, dated 2013):

How the values were obtained:
male rats = assay: Plasma metabolite profiling (GC-MS/LC-MS) for liver toxicity markers, 28-day gavage study, male rats; assay type: in vivo, rat; settings: male rats
Experimental: (§1) A group of each 5 male and female rats was dosed once daily with the indicated compounds (see tables below) at 10 and 100 mg/kg body weight per gavage over 28 days. Additional groups of each 5 male and female animals served as controls. Before starting the treatment period, animals, which were 62-64 days old when supplied, were acclimatized to the housing and environmental conditions for 7 days. All animals of the animal population were kept under the same constant temperature (20-24±3° C.) and the same constant humidity (30-70%). Each animal of the animal population was kept in a separate cage. The animals of the animal population are fed ad libitum. The food to be used was be essentially free of chemical or microbial contaminants. Drinking water was also offered ad libitum. Accordingly, the water was be free of chemical and microbial contaminants as laid down in the European Drinking Water Directive 98/83/EG. The illumination period was 12 hours light followed by 12 hours darkness (12 hours light, from 6:00 to 18:00, and 12 hours darkness, from 18:00 to 6:00).
(§2) In the morning of day 7, 14, and 28, blood was taken from the retroorbital venous plexus from fasted anaesthetized animals. From each animal, 1 ml of blood was collected with EDTA as anticoagulant. The samples were be centrifuged for generation of plasma. All plasma samples were covered with a N2 atmosphere and then stored at −80° C. until analysis.
(§3) For mass spectrometry-based metabolite profiling analyses plasma samples were extracted and a polar and a non-polar fraction was obtained. For GC-MS analysis, the non-polar fraction was treated with methanol under acidic conditions to yield the fatty acid methyl esters. Both fractions were further derivatised with O-methyl-hydroxyamine hydrochloride and pyridine to convert Oxo-groups to O-methyloximes and subsequently with a silylating agent before analysis. In LC-MS analysis, both fractions were reconstituted in appropriate solvent mixtures. HPLC was performed by gradient elution on reversed phase separation columns. For mass spectrometric detection metanomics proprietary technology was applied which allows target and high sensitivity MRM (Multiple Reaction Monitoring) profiling in parallel to a full screen analysis.
(§4) Following comprehensive analytical validation steps, the data for each analyte were normalized against data from pool samples. These samples were run in parallel through the whole process to account for process variability. The significance of treatment group values specific for sex, dose group and metabolite was determined by comparing means of the treated groups to the means of the respective untreated control groups using WELCH-test. Normalized treatment group values and their significance were fed into a database for further statistics and data mining processes.
(§5) The changes of the group of plasma metabolites being indicative for liver toxicity after treatment of the rats are shown in the following tables: […]

female rats = assay: Plasma metabolite profiling (GC-MS/LC-MS) for liver toxicity markers, 28-day gavage study, female rats; assay type: in vivo, rat; settings: female rats
Experimental: as §1, §2, §3, §4, §5

CN(C)C=O [Dimethylformamide]
1,2-Dioleoyl-sn-glycero-3-phosphatidyl-L-serine, change of plasma metabolite (male rats; mh7 (day 7)): 1.31
4-Hydroxysphingosine, change of plasma metabolite (male rats; mh7 (day 7)): 2.14
Arachidonic acid (C20:cis-[5,8,11,14]4), change of plasma metabolite (male rats; mh7 (day 7)): 1.68
Behenic acid (C22:0), change of plasma metabolite (male rats; mh7 (day 7)): 2.07
Ceramide (d18:1, C24:0), change of plasma metabolite (male rats; mh7 (day 7)): 1.72
Ceramide (d18:1, C24:1), change of plasma metabolite (male rats; mh7 (day 7)): 1.71
Cholesterol, change of plasma metabolite (male rats; mh7 (day 7)): 2.01
Docosahexaenoic acid (C22:cis[4,7,10,13,16,19]6), change of plasma metabolite (male rats; mh7 (day 7)): 1.96
Eicosatrienoic acid, change of plasma metabolite (male rats; mh7 (day 7)): 2.55
Glycerolphosphate, lipid fraction, change of plasma metabolite (male rats; mh7 (day 7)): 1.86
Heptadecanoic acid (C17:0), change of plasma metabolite (male rats; mh7 (day 7)): 1.27
Lignoceric acid (C24:0), change of plasma metabolite (male rats; mh7 (day 7)): 2.04
Linoleic acid (C18:cis[9,12]2), change of plasma metabolite (male rats; mh7 (day 7)): 1.71
Nervonic acid (C24:1), change of plasma metabolite (male rats; mh7 (day 7)): 2.53
Palmitic acid (C16:0), change of plasma metabolite (male rats; mh7 (day 7)): 1.38
Phosphatidylcholine (C18:2, C20:4), change of plasma metabolite (male rats; mh7 (day 7)): 1.18
alpha-Tocopherol, change of plasma metabolite (male rats; mh7 (day 7)): 2.69
myo-Inositol-2-monophosphate, lipid fraction, change of plasma metabolite (male rats; mh7 (day 7)): 1.92
1,2-Dioleoyl-sn-glycero-3-phosphatidyl-L-serine, change of plasma metabolite (male rats; mh14 (day 14)): 1.28
4-Hydroxysphingosine, change of plasma metabolite (male rats; mh14 (day 14)): 2.07
Arachidonic acid (C20:cis-[5,8,11,14]4), change of plasma metabolite (male rats; mh14 (day 14)): 1.74
Behenic acid (C22:0), change of plasma metabolite (male rats; mh14 (day 14)): 2.15
Ceramide (d18:1, C24:0), change of plasma metabolite (male rats; mh14 (day 14)): 1.40
Ceramide (d18:1, C24:1), change of plasma metabolite (male rats; mh14 (day 14)): 1.70
Cholesterol, change of plasma metabolite (male rats; mh14 (day 14)): 2.15
Docosahexaenoic acid (C22:cis[4,7,10,13,16,19]6), change of plasma metabolite (male rats; mh14 (day 14)): 1.99
Eicosatrienoic acid, change of plasma metabolite (male rats; mh14 (day 14)): 2.02
Glycerolphosphate, lipid fraction, change of plasma metabolite (male rats; mh14 (day 14)): 1.67
Heptadecanoic acid (C17:0), change of plasma metabolite (male rats; mh14 (day 14)): 1.51
Lignoceric acid (C24:0), change of plasma metabolite (male rats; mh14 (day 14)): 2.22
Linoleic acid (C18:cis[9,12]2), change of plasma metabolite (male rats; mh14 (day 14)): 1.70
Nervonic acid (C24:1), change of plasma metabolite (male rats; mh14 (day 14)): 3.57
Palmitic acid (C16:0), change of plasma metabolite (male rats; mh14 (day 14)): 1.64
Phosphatidylcholine (C18:2, C20:4), change of plasma metabolite (male rats; mh14 (day 14)): 1.17
alpha-Tocopherol, change of plasma metabolite (male rats; mh14 (day 14)): 2.46
myo-Inositol-2-monophosphate, lipid fraction, change of plasma metabolite (male rats; mh14 (day 14)): 2.48
1,2-Dioleoyl-sn-glycero-3-phosphatidyl-L-serine, change of plasma metabolite (male rats; mh28 (day 28)): 1.41
4-Hydroxysphingosine, change of plasma metabolite (male rats; mh28 (day 28)): 2.35
Arachidonic acid (C20:cis-[5,8,11,14]4), change of plasma metabolite (male rats; mh28 (day 28)): 1.55
Behenic acid (C22:0), change of plasma metabolite (male rats; mh28 (day 28)): 2.24
Ceramide (d18:1, C24:0), change of plasma metabolite (male rats; mh28 (day 28)): 1.63
Ceramide (d18:1, C24:1), change of plasma metabolite (male rats; mh28 (day 28)): 1.88
Cholesterol, change of plasma metabolite (male rats; mh28 (day 28)): 1.81
Docosahexaenoic acid (C22:cis[4,7,10,13,16,19]6), change of plasma metabolite (male rats; mh28 (day 28)): 2.06
Eicosatrienoic acid, change of plasma metabolite (male rats; mh28 (day 28)): 1.60
Glycerolphosphate, lipid fraction, change of plasma metabolite (male rats; mh28 (day 28)): 1.59
Heptadecanoic acid (C17:0), change of plasma metabolite (male rats; mh28 (day 28)): 1.25
Lignoceric acid (C24:0), change of plasma metabolite (male rats; mh28 (day 28)): 2.52
Linoleic acid (C18:cis[9,12]2), change of plasma metabolite (male rats; mh28 (day 28)): 1.49
Nervonic acid (C24:1), change of plasma metabolite (male rats; mh28 (day 28)): 3.39
Palmitic acid (C16:0), change of plasma metabolite (male rats; mh28 (day 28)): 1.41
Phosphatidylcholine (C18:2, C20:4), change of plasma metabolite (male rats; mh28 (day 28)): 1.26
alpha-Tocopherol, change of plasma metabolite (male rats; mh28 (day 28)): 1.87
myo-Inositol-2-monophosphate, lipid fraction, change of plasma metabolite (male rats; mh28 (day 28)): 2.31
1,2-Dioleoyl-sn-glycero-3-phosphatidyl-L-serine, change of plasma metabolite (female rats; fh7 (day 7)): 1.35
4-Hydroxysphinganine, change of plasma metabolite (female rats; fh7 (day 7)): 1.79
Arachidonic acid (C20:cis-[5,8,11,14]4), change of plasma metabolite (female rats; fh7 (day 7)): 2.04
Behenic acid (C22:0), change of plasma metabolite (female rats; fh7 (day 7)): 2.15
Ceramide (d18:1, C24:0), change of plasma metabolite (female rats; fh7 (day 7)): 1.64
Cholesterol, change of plasma metabolite (female rats; fh7 (day 7)): 2.41
Docosahexaenoic acid (C22:cis[4,7,10,13,16,19]6), change of plasma metabolite (female rats; fh7 (day 7)): 2.02
Glycerol, lipid fraction, change of plasma metabolite (female rats; fh7 (day 7)): 1.64
Glycerolphosphate, lipid fraction, change of plasma metabolite (female rats; fh7 (day 7)): 2.37
Heptadecanoic acid (C17:0), change of plasma metabolite (female rats; fh7 (day 7)): 1.43
ID28x493, change of plasma metabolite (female rats; fh7 (day 7)): 2.27
Lignoceric acid (C24:0), change of plasma metabolite (female rats; fh7 (day 7)): 2.01
Linoleic acid (C18:cis[9,12]2), change of plasma metabolite (female rats; fh7 (day 7)): 1.90
Nervonic acid (C24:1), change of plasma metabolite (female rats; fh7 (day 7)): 2.51
Palmitic acid (C16:0), change of plasma metabolite (female rats; fh7 (day 7)): 1.93
Phosphate, lipid (Phospholipids), change of plasma metabolite (female rats; fh7 (day 7)): 1.51
Stearic acid (C18:0), change of plasma metabolite (female rats; fh7 (day 7)): 1.62
TAG No 1, change of plasma metabolite (female rats; fh7 (day 7)): 2.26
Threonic acid, change of plasma metabolite (female rats; fh7 (day 7)): 1.49
Tricosanoic acid (C23:0), change of plasma metabolite (female rats; fh7 (day 7)): 1.65
1,2-Dioleoyl-sn-glycero-3-phosphatidyl-L-serine, change of plasma metabolite (female rats; fh14 (day 14)): 1.69
4-Hydroxysphinganine, change of plasma metabolite (female rats; fh14 (day 14)): 2.26
Arachidonic acid (C20:cis-[5,8,11,14]4), change of plasma metabolite (female rats; fh14 (day 14)): 1.93
Behenic acid (C22:0), change of plasma metabolite (female rats; fh14 (day 14)): 2.48
Ceramide (d18:1, C24:0), change of plasma metabolite (female rats; fh14 (day 14)): 2.13
Cholesterol, change of plasma metabolite (female rats; fh14 (day 14)): 2.23
Docosahexaenoic acid (C22:cis[4,7,10,13,16,19]6), change of plasma metabolite (female rats; fh14 (day 14)): 2.21
Glycerol, lipid fraction, change of plasma metabolite (female rats; fh14 (day 14)): 1.88
Glycerolphosphate, lipid fraction, change of plasma metabolite (female rats; fh14 (day 14)): 1.97
Heptadecanoic acid (C17:0), change of plasma metabolite (female rats; fh14 (day 14)): 1.64
ID28x493, change of plasma metabolite (female rats; fh14 (day 14)): 3.14
Lignoceric acid (C24:0), change of plasma metabolite (female rats; fh14 (day 14)): 2.29
Linoleic acid (C18:cis[9,12]2), change of plasma metabolite (female rats; fh14 (day 14)): 2.33
Nervonic acid (C24:1), change of plasma metabolite (female rats; fh14 (day 14)): 2.69
Palmitic acid (C16:0), change of plasma metabolite (female rats; fh14 (day 14)): 2.08
Phosphate, lipid (Phospholipids), change of plasma metabolite (female rats; fh14 (day 14)): 1.35
Stearic acid (C18:0), change of plasma metabolite (female rats; fh14 (day 14)): 1.67
TAG No 1, change of plasma metabolite (female rats; fh14 (day 14)): 2.87
Threonic acid, change of plasma metabolite (female rats; fh14 (day 14)): 1.37
1,2-Dioleoyl-sn-glycero-3-phosphatidyl-L-serine, change of plasma metabolite (female rats; fh28 (day 28)): 1.47
4-Hydroxysphinganine, change of plasma metabolite (female rats; fh28 (day 28)): 2.22
Arachidonic acid (C20:cis-[5,8,11,14]4), change of plasma metabolite (female rats; fh28 (day 28)): 1.80
Behenic acid (C22:0), change of plasma metabolite (female rats; fh28 (day 28)): 2.18
Ceramide (d18:1, C24:0), change of plasma metabolite (female rats; fh28 (day 28)): 1.82
Cholesterol, change of plasma metabolite (female rats; fh28 (day 28)): 2.08
Docosahexaenoic acid (C22:cis[4,7,10,13,16,19]6), change of plasma metabolite (female rats; fh28 (day 28)): 1.76
Glycerol, lipid fraction, change of plasma metabolite (female rats; fh28 (day 28)): 1.89
Glycerolphosphate, lipid fraction, change of plasma metabolite (female rats; fh28 (day 28)): 2.35
Heptadecanoic acid (C17:0), change of plasma metabolite (female rats; fh28 (day 28)): 1.48
ID28x493, change of plasma metabolite (female rats; fh28 (day 28)): 2.02
Lignoceric acid (C24:0), change of plasma metabolite (female rats; fh28 (day 28)): 2.45
Linoleic acid (C18:cis[9,12]2), change of plasma metabolite (female rats; fh28 (day 28)): 2.37
Nervonic acid (C24:1), change of plasma metabolite (female rats; fh28 (day 28)): 2.91
Palmitic acid (C16:0), change of plasma metabolite (female rats; fh28 (day 28)): 1.93
Phosphate, lipid (Phospholipids), change of plasma metabolite (female rats; fh28 (day 28)): 1.59
Stearic acid (C18:0), change of plasma metabolite (female rats; fh28 (day 28)): 1.61
TAG No 1, change of plasma metabolite (female rats; fh28 (day 28)): 3.81
Threonic acid, change of plasma metabolite (female rats; fh28 (day 28)): 1.19
